No end group written: not given here.
Tested on: antibodies formed against human papillomavirus (HPV)
Assay: ELISA immunoassay of titer-plate-bound HPV peptides with subject serum (antibody-peptide complex, HRP anti-human IgG, TMB)
Assay type: binding
Details: serum of Subject 6 (low pre-test probability, no HPV DNA detected), diluted 1:25; absorbance read at 450 nm
Method: REACTI-BIND™ Maleic Anhydride Activated Polystyrene Plates (Pierce, Rockford, Ill.) may be employed. Each amino acid sequence may be diluted to 12.5 μg/mL with coating buffer (100 mM sodium bicarbonate buffer, pH 9.4). To each titer well, 100 μL (1.25 μg) of the diluted sequence solution may be added. The plate may then be incubated for one hour at room temperature with shaking. The plate may be emptied and residual liquid tapped onto a clean paper towel. Each well may be washed with 100 μL wash buffer (0.1% bovine serum albumin and 0.05% Tween-20 in phosphate buffered saline, pH 7.0). This may be repeated for a total of three times. Each time, the plate may be emptied and residual liquid tapped onto a clean paper towel. To each well, 200 μL of blocking solution (3% bovine serum albumin and 0.05% Tween-20 in phosphate buffered saline, pH 7.0) may be added.
Blocking solution may be left in each well for one minute. The titer plate may then be emptied by inversion. Filling with blocking solution and emptying may be done three times. Finished titer plates may be dried at room temperature and stored at 4° C. for up to four months.
For negative samples, serum may be obtained from virgin females, ages 14 and 15, and from adult sexually active, monogamous women, more than 25 years old, with histories of no Pap smear abnormalities and DNA verification of HPV absence. Positive samples consisted of serum obtained from females diagnosed with cervical cancer or precancerous disease. Subject and control sera may be diluted 1:25 with wash buffer (0.1% bovine serum albumin and […] in phosphate buffered saline, pH 7.0). To each well, 100 μL of diluted serum may be added, and the assay plate incubated for one hour at room temperature with shaking. Each well may then be rinsed three times, each with 200 μL wash buffer. Each rinse may be for five minutes. […]
The bottom of the titer plate may be cleaned with 70% ethanol, and the titer plate loaded into the spectrophotometer. Absorbance may be read at 450 nm, with […] of TMB solution plus […] of 2N HCl used as a blank control.

Row | Substance | absorbance values
1 | HAGGQVILCPTSVFSSNEVSSPE [SEQ ID NO 3, 23 residues making up amino acids 187 through 209 of the HPV 16 E2 oncoprotein] | 0.49
2 | KHGYTVQFDGICNTMHY [SEQ ID NO 2, 17 residues making up amino acids 112 through 131 of the HPV 16 E2 oncoprotein] | 0.32
3 | Lys Gln Leu Gln His Thr Pro Ser Pro Tyr Ser Ser Thr Val Ser Val Gly Thr Ala Lys Thr Tyr [SEQ ID NO 1] | 0.44
